Data as given in paper PMC3951324, “Side Chain Hydrophobicity Modulates Therapeutic Activity and Membrane Selectivity of Antimicrobial Peptide Mastoparan-X” (PLoS ONE, 2014).
In brackets after ≈: the same amount, converted by molar mass. Square brackets hold non-standard residues; d marks the D form. Ends that are not written are not given here. Peptide text beside a SMILES is read from it. * marks the point of attachment. ξ: configuration not given here. ξGly(octyl) = CCCCCCCCC(N)C(=O)O; Octanoyl = CCCCCCCC(=O)*; Propionyl = CCC(=O)*

Assays:
[1] = tested on: human red blood cells (RBCs); assay: Haemolysis assay; type: cell-based; details: for % haemolysis: human RBCs; for H5, concentration at which 5% haemolysis has been obtained: purified human erythrocytes, assay as in Etzerodt et al. [14]
Excerpt: All Fmoc (9H-fluoren-9-yl-methyloxycarbonyl) L-amino acids and HATU (1-[Bis(dimethylamino)methylene]-1H-1,2,3-triazolo[4,5-b]pyridinium 3-oxid hexafluorophosphate, N-[(Dimethylamino)-1H-1,2,3-triazolo-[4,5-b]pyridin-1-ylmethylene]-N-methylmethanaminium hexafluorophosphate N-oxide) were purchased from GLS China (GL Biochem, Shanghai, China). Fmoc-2-amino-decanoic acid was obtained from Watanabe Chemical Industries, Ltd (Hiroshima, Japan). Lys and Trp were side-chain-protected as tert-butoxycarbonyl, Asn was sidechain protected with trityl. Tentagel resin was purchased from NovaBiochem (Merck, Darmstadt, Germany). TFA (trifluoroacetic acid), TIS (triisopropylsilane), HEPES (N-(2-hydroxyethyl)piperazine-N-(2-ethanesulfonic acid)), 2,4,6-collidine and pyrene were purchased from Sigma-Aldrich (Brøndby, Denmark). Pyridine, sodium hydroxide pellets and sodium chloride was purchased from J.T. Baker Chemicals (Phillipsburg, NJ, USA). Filter supports and Hamilton extrusion syringes, POPG (1-palmitoyl-2-oleoyl-sn-glycero-3-[phospho-rac-(1-glycerol)] sodium salt), and POPC (1-palmitoyl-2-oleoyl-sn-glycero-3-phosphocholine) were purchased from Avanti Polar Lipids (Alabaster, AL). All compounds were used without further purification. Membrane filters for extrusion (100 nm pore size, polycarbonate) were purchased from Whatman (Maidstone, UK). Cuvettes (4×10 mm, quartz, Suprasil) were purchased from Hellma (Müllheim, Germany). Purified human erythrocytes for the haemolysis studies were provided by Bioneer (Hørsholm, Denmark), and were stored at 4°C for a maximum of three days before use.
The assay was conducted as described in Etzerodt et al..

[2] = tested on: Escherichia coli, strain INV-α; assay: Determination of minimal inhibitory concentration (MIC); type: cell-based; details: LB medium, 37°C, 20 h, shaking, peptide 0.05–50 µM, absorbance 570 nm, triplicates
Experimental: (§1) A stock dilution series with ten points, ranging from 1 µM to 1 mM, was prepared in sterile PBS from freshly dissolved peptides. The dilution series was dispensed in triplicates in 96-deepwell microtiter plates (VWR Denmark, Herlev, Denmark), with 15 µl in each well. Multidispensing with electronic pipettes (Biohit, Tåstrup, Denmark) was used throughout. Lactococcus lactis, strain MG1363 (ATCC, LGC Standards AB, Boras, Sweden) and Escherichia coli, strain INV-α (Invitrogen, Nærum, Denmark) were grown in M9 (Sigma Aldrich, Brøndby, Denmark) and LB medium (Difco, BD Biosciences, Brøndby Denmark), respectively. A single colony was grown overnight at 30°C and 37°C for L.lactis and E.coli respectively. The next day, a fresh culture was started with a twenty-fold dilution of the cells and grown for exactly 60 min (optical density was approximately 0.4 at 570 nm). The cell culture was diluted (300 fold for L.lactis and 1000 fold for E.coli) before adding 150 µl to microtiter plates already containing 15 µl peptide solution and 135 µl fresh medium. […] Plates with L.lactis were sealed with lid and parafilm, and plates with E.coli were sealed with a gas-permeable tape (VWR Denmark, Herlev, Denmark). The plates were incubated at the respective temperatures for 20 hours with shaking (150 rpm). For each measurement, 100 µl of the cell culture was transferred to clear, flat-bottomed microtiter plates, and the absorbance at 570 nm was determined using a Victor3 plate reader (Perkin Elmer, Skovlunde, Denmark). The measurement was conducted in triplicates.

[3] = tested on: Lactococcus lactis, strain MG1363; assay: as above; type: cell-based; details: strain MG1363, M9 medium, 30°C, 20 h, shaking; peptide 0.05–50 µM; absorbance 570 nm; triplicates
Experimental: as §1

[4] = Peptide partitioning by ITC; type: physicochemical; details: 37°C; for partition coefficient of insertion Kins/10^5: 10 mM POPC∶POPG (3∶1) LUVs into 20 µM peptide, pH 7.4, Gouy-Chapman-Stern fit, value is Kins divided by 10^5, triplicates; for effective partition coefficient Keff/10^8: derived from Kins, zeff and the surface potential of fully charged membrane (25 mol% negative charge), value is Keff divided by 10^8
Experimental: Lipid stock solutions of POPC and POPG were prepared in chloroform∶methanol (9∶1). Mixtures of POPC∶POPG (3∶1) were prepared and the organic solvent was evaporated under a gentle stream of nitrogen. The lipid films were kept in vacuum (P<0.1 Pa) overnight in order to remove the residual solvent. Buffer containing 10 mM HEPES and 100 mM sodium chloride (pH 7.4) was added to the lipid films, and they were hydrated for 60 min followed by extrusion through 100 nm using an Avanti mini-extruder. Dynamic Light Scattering (DLS, Brookhaven Instrument Corporation, ZetaPALS) was used for measuring the liposome size distribution. The effective lipid concentration was determined by inductively coupled plasma atomic emission spectroscopy (ICP-AES Vista AX, Varian).
The partitioning of AMPs onto lipid membranes was investigated by isothermal titration calorimetry (ITC, iTC200, Microcal, 204 µL cell volume). For the peptide analogues MPX, Ala1 and Ala14, 10 mM […] (3∶1) LUVs were injected (19×2 µL) into a 20 µM peptide solution at T = 37°C. The speed of the stirrer was 1000 rpms, and all titration were initiated with a 0.5 µL pre-injection. The heat-traces were integrated using custom made software, and the heat of partitioning was analysed using a partitioning isotherm based on Gouy-Chapman-Stern description of the electrostatic interaction of the peptide and membrane, [32]. The effective charge of the peptide (zeff), the partitioning coefficient of insertion (Kins), the molar enthalpy of partitioning ( [drawing 4] ), and the heat of dilution (qdil) were extracted as fitting parameters. The effective partitioning coefficient was derived as [drawing 5] where F is Faradays constant, [drawing 6] is the electrostatic potential evaluated at the interface of a fully charged membrane (25mol% negative charge before insertion of the first peptide), and R is the ideal gas constant. The instrument was electrically calibrated, and blank titration of LUVs into buffer was performed to ensure that heat of dilution could be modelled as a constant in the data analysis. Each titration was conducted in triplicates.

Row | Molecule | % haemolysis ([1]; 50 µM peptide) | H5, concentration at which 5% haemolysis has been obtained [1] | MIC (E. coli) [2] | MIC (L. lactis) [3] | partition coefficient of insertion Kins/10^5 [4] | effective partition coefficient Keff/10^8 [4] | % haemolysis ([1]; 200 µM peptide)
1 | CCCCCCCC(=O)N[C@H](C(=O)N[C@@H](CC(N)=O)C(=O)N[C@@H](Cc1c[nH]c2ccccc12)C(=O)N[C@@H](CCCCN)C(=O)NCC(=O)N[C@H](C(=O)N[C@@H](C)C(=O)N[C@@H](C)C(=O)N[C@@H](CCSC)C(=O)N[C@@H](C)C(=O)N[C@@H](CCCCN)C(=O)N[C@@H](CCCCN)C(=O)N[C@@H](CC(C)C)C(=O)N[C@@H](CC(C)C)C(N)=O)[C@@H](C)CC)[C@@H](C)CC [OAMPX] (Octanoyl-INWKGIAAMAKKLL-NH2) | full haemolysis | 1.1 ± 0.3 µM | 5 ± 1 µM (≈ 8.41 µg/mL) | 3.3 ± 0.8 µM (≈ 5.55 µg/mL) |  |  | 
2 | INWKGIAAMAKKLA-NH2 [Ala14] | ~1.5% | 220 ± 20 µM | 33 ± 8 µM | 21 ± 4 µM | 1.4±0.3 | 1.1±0.2 | ~4%
3 | CCCCCCCCC(N)C(=O)N[C@@H](CC(N)=O)C(=O)N[C@@H](Cc1c[nH]c2ccccc12)C(=O)N[C@@H](CCCCN)C(=O)NCC(=O)N[C@H](C(=O)N[C@@H](C)C(=O)N[C@@H](C)C(=O)N[C@@H](CCSC)C(=O)N[C@@H](C)C(=O)N[C@@H](CCCCN)C(=O)N[C@@H](CCCCN)C(=O)N[C@@H](CC(C)C)C(=O)N[C@@H](CC(C)C)C(N)=O)[C@@H](C)CC (stereo partly shown) [Adec1] (H-[ξGly(octyl)]NWKGIAAMAKKLL-NH2) | full haemolysis | 0.7 ± 0.1 µM | 3.3 ± 0.8 µM (≈ 5.32 µg/mL) | 1.7 ± 0.4 µM (≈ 2.74 µg/mL) |  |  | 
4 | CCCCCCCCC(NC(=O)[C@H](CC(C)C)NC(=O)[C@H](CCCCN)NC(=O)[C@H](CCCCN)NC(=O)[C@H](C)NC(=O)[C@H](CCSC)NC(=O)[C@H](C)NC(=O)[C@H](C)NC(=O)[C@@H](NC(=O)CNC(=O)[C@H](CCCCN)NC(=O)[C@H](Cc1c[nH]c2ccccc12)NC(=O)[C@H](CC(N)=O)NC(=O)[C@@H](N)[C@@H](C)CC)[C@@H](C)CC)C(N)=O (stereo partly shown) [Adec14] (H-INWKGIAAMAKKL[ξGly(octyl)]-NH2) | full haemolysis | 0.8 ± 0.2 µM | 3.3 ± 0.8 µM (≈ 5.32 µg/mL) | 1.7 ± 0.4 µM (≈ 2.74 µg/mL) |  |  | 
5 | CCC(=O)N[C@H](C(=O)N[C@@H](CC(N)=O)C(=O)N[C@@H](Cc1c[nH]c2ccccc12)C(=O)N[C@@H](CCCCN)C(=O)NCC(=O)N[C@H](C(=O)N[C@@H](C)C(=O)N[C@@H](C)C(=O)N[C@@H](CCSC)C(=O)N[C@@H](C)C(=O)N[C@@H](CCCCN)C(=O)N[C@@H](CCCCN)C(=O)N[C@@H](CC(C)C)C(=O)N[C@@H](CC(C)C)C(N)=O)[C@@H](C)CC)[C@@H](C)CC [PAMPX] (Propionyl-INWKGIAAMAKKLL-NH2) | 10% | 25 ± 1 µM | 21 ± 4 µM (≈ 33.9 µg/mL) | 3.3 ± 0.8 µM (≈ 5.32 µg/mL) |  |  | 
6 | ANWKGIAAMAKKLL-NH2 [Ala1] | ~1.5% | 230 ± 10 µM | 33 ± 8 µM | 18 ± 7 µM | 1.1±0.1 | 25±7 | ~4%
7 | CCCCCCCCC(NC(=O)[C@H](C)NC(=O)[C@@H](NC(=O)CNC(=O)[C@H](CCCCN)NC(=O)[C@H](Cc1c[nH]c2ccccc12)NC(=O)[C@H](CC(N)=O)NC(=O)[C@@H](N)[C@@H](C)CC)[C@@H](C)CC)C(=O)N[C@@H](CCSC)C(=O)N[C@@H](C)C(=O)N[C@@H](CCCCN)C(=O)N[C@@H](CCCCN)C(=O)N[C@@H](CC(C)C)C(=O)N[C@@H](CC(C)C)C(N)=O (stereo partly shown) [Adec8] (H-INWKGIA[ξGly(octyl)]MAKKLL-NH2) | full haemolysis | 1 ± 1 µM | 4.2 ± 0.8 µM (≈ 6.95 µg/mL) | 4.2 ± 0.8 µM (≈ 6.95 µg/mL) |  |  | 
8 | INWKGIALMAKKLL-NH2 [Leu8] |  | 14 ± 2 µM | 7 ± 3 µM | 2.5 ± 1.3 µM |  |  | 
